Source: ChEMBL document CHEMBL1201862, “PubChem BioAssay data set” (2004)
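Tested at 5 concentrations; 48 h exposure; 96-well plates; endpoints linearly interpolated, else capped at highest concentration. At the GI50, growth is halved.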 Active and inactive are the calls of the source. No stated cut-off is given here; in the data, active = GI50 up to about 1.1 µM and inactive = higher.

Tests used:
Test in all cases: NCI tumour cell line growth inhibition, 48 h
ACHN = tested on: ACHN
BT-549 = tested on: BT-549
HCT-15 = tested on: HCT-15
HOP-62 = tested on: HOP-62
HT-29 = tested on: HT-29
Hs-578T = tested on: Hs-578T
KM12 = tested on: KM12
Malme-3M = tested on: Malme-3M
NCI-H23 = tested on: NCI-H23
OVCAR-4 = tested on: OVCAR-4
OVCAR-5 = tested on: OVCAR-5
RXF 393 = tested on: RXF 393
SF-268 = tested on: SF-268
SF-539 = tested on: SF-539
SK-MEL-5 = tested on: SK-MEL-5
SN12C = tested on: SN12C
SNB-75 = tested on: SNB-75
T47D = tested on: T47D
U-251 = tested on: U-251
UACC-257 = tested on: UACC-257

Row | SMILES | GI50 (ACHN) | GI50 (BT-549) | GI50 (HCT-15) [µM] | GI50 (HOP-62) | GI50 (HT-29) | GI50 (Hs-578T) | GI50 (KM12) | GI50 (Malme-3M) | GI50 (NCI-H23) | GI50 (OVCAR-4) | GI50 (OVCAR-5) | GI50 (RXF 393) | GI50 (SF-268) | GI50 (SF-539) | GI50 (SK-MEL-5) | GI50 (SN12C) | GI50 (SNB-75) | GI50 (T47D) | GI50 (U-251) | GI50 (UACC-257)
1 | S=C(S)NCC1CCC(CNC(=S)S)CC1 (stereo not given) | 20.7 µM (inactive) | 44.1 µM (inactive) | 23.6 | 20.7 µM (inactive) | 17.7 µM (inactive) | > 100 µM (inactive) | 19.7 µM (inactive) | 22.8 µM (inactive) | 44.5 µM (inactive) | 42.8 µM (inactive) | > 100 µM (inactive) | 20 µM (inactive) | 39.2 µM (inactive) | 38.5 µM (inactive) | 87.9 µM (inactive) | 20.6 µM (inactive) | 34.9 µM (inactive) | 16.3 µM (inactive) | 20.1 µM (inactive) | 26.3 µM (inactive)
2 | Cc1ccc2c(n1)C(=O)C=CC2=O | 2.89 µM (inactive) | 16.5 µM (inactive) | 9.48 | 26.3 µM (inactive) | 13.9 µM (inactive) | 30.8 µM (inactive) | 21.2 µM (inactive) | 5.79 µM (inactive) | 15.7 µM (inactive) | 6.87 µM (inactive) | 18.2 µM (inactive) | 5.93 µM (inactive) | 20.9 µM (inactive) | 16.5 µM (inactive) | 14.9 µM (inactive) | 13.4 µM (inactive) | 19.4 µM (inactive) | 1.88 µM (inactive) | 17.4 µM (inactive) | 7.35 µM (inactive)
3 | CCOC(=O)c1c(-c2ccc(OC)cc2)ccn1C | > 10 µM (inactive) | > 10 µM (inactive) | > 10 | > 10 µM (inactive) | > 10 µM (inactive) | > 10 µM (inactive) | > 10 µM (inactive) | > 10 µM (inactive) | > 10 µM (inactive) | > 10 µM (inactive) | > 10 µM (inactive) | 9.1 µM (inactive) | > 8.41 µM (inactive) | 0.0975 µM (active) | > 10 µM (inactive) | > 10 µM (inactive) | > 10 µM (inactive) | > 10 µM (inactive) | > 10 µM (inactive) | > 10 µM (inactive)
